Results published in patent publication US12257252B2, “Compositions and methods for increasing tetrahydrobiopterin plasma exposure” (PTC Therapeutics MP, Inc., priority 2018, dated 2025).
Where two headings read alike, the source gives them in different places.

Key:
[1] = type: in vivo
Protocol: Method: Twelve subjects were given a single dose (10 mg/kg) of sepiapterin under fasting conditions and then 7 days later under fed conditions. Standard definitions of adverse events (AE) were used. All-cause AE were those that occurred at any time; treatment-emergent adverse events (TEAE) were those that occurred at or after the time of administration of study treatment. TEAEs related to study drug were based on the opinion of the investigator. Serious AE were defined as life threatening or caused death, hospitalization or prolongation of existing hospitalization, or were a persistent or significant disability/incapacity or a substantial disruption of the ability to conduct normal life functions, or a congenital anomaly/birth defect.

[2] = CSF levels of sepiapterin, BH4, BH2 and neurotransmitter metabolites after sepiapterin; type: in vivo; settings: 60 mg/kg; Day 1 or Day 7 +/-30 minutes from BH4 Tmax
Protocol: The cerebrospinal fluid (CSF) of selected subjects is collected via lumbar puncture on Day1 (before dose) and on Day 7 (i.e., following daily dosing for 7 days) approximately 30 minutes from time of the maximum observed plasma BH4 concentration (Tmax) as determined from the blood analysis. The cerebral spinal fluid (CSF) is analyzed by MNG Labs. Descriptive statistics are provided to characterize any changes in neurotransmitter metabolism between the Day 1, and Day 7 sample results. Method: Analyses were conducted in CSF samples of subjects administered 60 mg/kg sepiapterin or placebo. The following analytes were measured: sepiapterin, BH4, BH2, homovanillic acid (HVA), and 5-hydroxyindoleacetic acid (HIAA). Descriptive (n, mean, SD, median, minimum, maximum) statistics for these analytes at Day 1 and Day 7+/−30 minutes from Tmax and change from baseline at Day 7 were determined for each analyte.

[3] = Pharmacokinetics of multiple doses of sepiapterin in fed subjects; type: in vivo
Text: Methods: Three cohorts of eight fed subjects each were randomized to receive once-daily sepiapterin or placebo for 7 days in a 6:2 ratio. A sentinel dose strategy was also used for administration of the highest sepiapterin dose.

[4] = Food effect on sepiapterin: plasma sepiapterin and BH4 in fasted and fed subjects; type: in vivo; settings: sepiapterin 10 mg/kg oral
Protocol: Method: Subjects received 2 oral doses of sepiapterin (10 mg/kg) separated by 1 week in a fasted and fed state. Subjects were fed a standard high-fat (approximately 50 percent of total caloric content of the meal) and high-calorie (approximately 800 to 1000 calories) meal starting 30 minutes prior to receiving their second oral dose of sepiapterin on Day 8.
Sampling for PK analysis occurred predose on Days 1 and 8 (within 30 minutes before dosing) and 0.5 hr, 1 hr, 2 hr, 4 hr, 8 hr, 12 hr, and 24 hr after the doses on Days 1 and 8. The blood concentrations of sepiapterin and BH4 were analyzed by MNG Labs.

Question: For `C[C@H](O)C(=O)C1=Nc2c(nc(N)[nH]c2=O)NC1` [sepiapterin, Sepiapterin], which TEAE ([1]; human, in vivo, 10 mg/kg) is on record?
Answer: 4

Question: And the “TEAE related to study drug” value ([1]; human, in vivo, 10 mg/kg)?
Answer: 1

Question: And the “≥1 AE” value ([1]; human, in vivo, 10 mg/kg)?
Answer: 5

Question: What about the “Incidence of adverse events, fed compared to fasted subjects” value ([1]; single dose 10 mg/kg, fed vs fasted) of the same compound?
Answer: decreased incidence of adverse events

Question: What about the “Sepiapterin in the CSF” value [2] of the same compound?
Answer: not detected

Question: And the AUC0-24 of sepiapterin ([3]; Day 7, 60 mg/kg once daily)?
Answer: 23 ng·h/mL

Question: What about the “Drug accumulation (plasma sepiapterin and BH4 after 1 and 7 days of treatment)” value ([3]; once daily for 7 days) of the same compound?
Answer: no drug accumulation

Question: And the “Maximum sepiapterin concentration in plasma” value ([4]; fasted, 0 h (predose))?
Answer: 0 nM

Question: And the “Mean sepiapterin concentration in plasma” value ([4]; fasted, 0 h (predose))?
Answer: 0 nM

Question: What about the “Median sepiapterin concentration in plasma” value ([4]; fasted, 0 h (predose)) of the same compound?
Answer: 0 nM

Question: And the “Maximum sepiapterin concentration in plasma” value ([4]; fasted, 8 h)?
Answer: 0 nM

Question: And the “Mean sepiapterin concentration in plasma” value ([4]; fasted, 8 h)?
Answer: 0 nM

Question: And the “Median sepiapterin concentration in plasma” value ([4]; fasted, 8 h)?
Answer: 0 nM

Question: And the “Maximum sepiapterin concentration in plasma” value ([4]; fasted, 12 h)?
Answer: 0 nM

Question: What about the “Mean sepiapterin concentration in plasma” value ([4]; fasted, 12 h) of the same compound?
Answer: 0 nM

Question: What about the “Median sepiapterin concentration in plasma” value ([4]; fasted, 12 h) of the same compound?
Answer: 0 nM

Question: What about the “Maximum sepiapterin concentration in plasma” value ([4]; fasted, 24 h) of the same compound?
Answer: 0 nM

Question: What about the “Mean sepiapterin concentration in plasma” value ([4]; fasted, 24 h) of the same compound?
Answer: 0 nM

Question: And the “Median sepiapterin concentration in plasma” value ([4]; fasted, 24 h)?
Answer: 0 nM

Question: And the “Maximum sepiapterin concentration in plasma” value ([4]; fed, 0 h (predose))?
Answer: 0 nM

Question: And the “Mean sepiapterin concentration in plasma” value ([4]; fed, 0 h (predose))?
Answer: 0 nM

Question: What about the “Median sepiapterin concentration in plasma” value ([4]; fed, 0 h (predose)) of the same compound?
Answer: 0 nM

Question: What about the concentration at 2 h ([4]; fed, 0 h (predose), read-out: Minimum sepiapterin concentration in plasma) of the same compound?
Answer: 0 nM

Question: What about the “Median sepiapterin concentration in plasma” value ([4]; fed, 0.5 h) of the same compound?
Answer: 0 nM

Question: What about the concentration at 2 h ([4]; fed, 0.5 h, read-out: Minimum sepiapterin concentration in plasma) of the same compound?
Answer: 0 nM

Question: And the concentration at 2 h ([4]; fed, 4 h, read-out: Minimum sepiapterin concentration in plasma)?
Answer: 0 nM

Question: And the “Median sepiapterin concentration in plasma” value ([4]; fed, 8 h)?
Answer: 0 nM

Question: And the concentration at 2 h ([4]; fed, 8 h, read-out: Minimum sepiapterin concentration in plasma)?
Answer: 0 nM

Question: What about the “Maximum sepiapterin concentration in plasma” value ([4]; fed, 12 h) of the same compound?
Answer: 0 nM

Question: What about the “Mean sepiapterin concentration in plasma” value ([4]; fed, 12 h) of the same compound?
Answer: 0 nM

Question: And the “Median sepiapterin concentration in plasma” value ([4]; fed, 12 h)?
Answer: 0 nM

Question: What about the concentration at 2 h ([4]; fed, 12 h, read-out: Minimum sepiapterin concentration in plasma) of the same compound?
Answer: 0 nM

Question: What about the “Maximum sepiapterin concentration in plasma” value ([4]; fed, 24 h) of the same compound?
Answer: 0 nM

Question: And the “Mean sepiapterin concentration in plasma” value ([4]; fed, 24 h)?
Answer: 0 nM

Question: And the “Median sepiapterin concentration in plasma” value ([4]; fed, 24 h)?
Answer: 0 nM

Question: What about the concentration at 2 h ([4]; fed, 24 h, read-out: Minimum sepiapterin concentration in plasma) of the same compound?
Answer: 0 nM

Question: What about the concentration at 0 h ([4]; human, plasma, fasted, 0 h (predose), read-out: Minimum sepiapterin concentration in plasma) of the same compound?
Answer: 0 nM

Question: What about the concentration at 0.5 h ([4]; human, plasma, fasted, 0.5 h, read-out: Minimum sepiapterin concentration in plasma) of the same compound?
Answer: 0 nM

Question: What about the concentration at 4 h ([4]; human, plasma, fasted, 4 h, read-out: Minimum sepiapterin concentration in plasma) of the same compound?
Answer: 0 nM

Question: And the concentration at 8 h ([4]; human, plasma, fasted, 8 h, read-out: Minimum sepiapterin concentration in plasma)?
Answer: 0 nM

Question: What about the concentration at 12 h ([4]; human, plasma, fasted, 12 h, read-out: Minimum sepiapterin concentration in plasma) of the same compound?
Answer: 0 nM

Question: What about the concentration at 24 h ([4]; human, plasma, fasted, 24 h, read-out: Minimum sepiapterin concentration in plasma) of the same compound?
Answer: 0 nM

Question: And the concentration at 1 h ([4]; human, plasma, fed, 1 h, read-out: Minimum sepiapterin concentration in plasma)?
Answer: 0 nM

Question: What about the concentration at 2 h ([4]; human, plasma, fed, 2 h, read-out: Minimum sepiapterin concentration in plasma) of the same compound?
Answer: 0 nM

Question: What about the “Geometric mean ratio (fasted/fed, 90% CI) for plasma sepiapterin AUClast” value ([4]; fasted/fed) of the same compound?
Answer: 1.29 (0.84 to 2.00)

Question: And the “Geometric mean ratio (fasted/fed, 90% CI) for plasma sepiapterin Cmax” value ([4]; fasted/fed)?
Answer: 1.57 (1.21 to 2.0)

Question: And the “Cmax of BH4 in the plasma, fed compared to fasted” value ([4]; fed vs fasted)?
Answer: much higher

Question: What about the “Cmax of sepiapterin in the plasma, fed compared to fasted” value ([4]; fed vs fasted) of the same compound?
Answer: much lower
